From ChEMBL document CHEMBL1201862, “PubChem BioAssay data set” (2004)
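Dose response: 5 concentrations. Exposure: 48 h. Format: 96-well plates. Endpoint: linear interpolation; highest concentration if not reached. The concentration for 50% growth inhibition is given as GI50.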 Calls of active or inactive are those of the source. Cut-off read from the data, not from the text of the source: active = GI50 up to about 1.1 µM and inactive = higher.

Columns and labels:
Assay in all cases: NCI-60 cell line screen, 48 h
786-0 = system: 786-0
NCI/ADR-RES = system: NCI/ADR-RES
NCI-H522 = system: NCI-H522
SK-MEL-28 = system: SK-MEL-28
MDA-MB-231 = system: MDA-MB-231
SR = system: SR
MOLT-4 = system: MOLT-4
LOX IMVI = system: LOX IMVI
MDA-MB-435 = system: MDA-MB-435
U-251 = system: U-251
A498 = system: A498
HCT-116 = system: HCT-116
HT-29 = system: HT-29
NCI-H460 = system: NCI-H460
HOP-92 = system: HOP-92
M14 = system: M14
ACHN = system: ACHN
SF-268 = system: SF-268
KM12 = system: KM12
K562 = system: K562

SMILES	GI50 (786-0)	GI50 (NCI/ADR-RES)	GI50 (NCI-H522)	GI50 (SK-MEL-28)	GI50 (MDA-MB-231)	GI50 (SR)	GI50 (MOLT-4)	GI50 (LOX IMVI)	GI50 (MDA-MB-435)	GI50 (U-251)	GI50 (A498)	GI50 (HCT-116)	GI50 (HT-29)	GI50 (NCI-H460)	GI50 (HOP-92)	GI50 (M14)	GI50 (ACHN)	GI50 (SF-268)	GI50 (KM12)	GI50 (K562)
COC(=O)C1(C)CC2C(C)(CCC3(C)C4=CC=C5C(=CC(=O)C(O)=C5C)C4(C)CCC23C)CC1O (stereo not given)	226 nM (active)	1060 nM (active)	200 nM (active)	521 nM (active)	577 nM (active)	203 nM (active)	285 nM (active)	333 nM (active)	942 nM (active)	1090 nM (active)	1930 nM (inactive)	564 nM (active)	634 nM (active)	1790 nM (inactive)	635 nM (active)	1260 nM (inactive)	450 nM (active)	863 nM (active)	1570 nM (inactive)	284 nM (active)
CCNCCCNc1c2ccccc2nc2ccccc12	552 nM (active)	916 nM (active)	183 nM (active)	401 nM (active)	612 nM (active)	285 nM (active)	313 nM (active)	251 nM (active)	479 nM (active)	435 nM (active)	631 nM (active)	365 nM (active)	219 nM (active)	196 nM (active)	469 nM (active)	318 nM (active)	136 nM (active)	472 nM (active)	396 nM (active)	329 nM (active)
CC(NP(=O)(c1ccccc1)c1ccccc1)c1ccccc1 (stereo not given)	> 100000 nM (inactive)	> 100000 nM (inactive)	> 100000 nM (inactive)	> 100000 nM (inactive)	> 100000 nM (inactive)	> 100000 nM (inactive)	> 100000 nM (inactive)	> 100000 nM (inactive)	> 100000 nM (inactive)	> 100000 nM (inactive)	> 100000 nM (inactive)	> 100000 nM (inactive)	> 100000 nM (inactive)	> 100000 nM (inactive)	> 100000 nM (inactive)	> 100000 nM (inactive)	> 100000 nM (inactive)	> 100000 nM (inactive)	> 100000 nM (inactive)	> 100000 nM (inactive)
